Measurements taken from patent publication US20240287164A1, “ANTIBODIES SPECIFIC TO NELL2 AND METHODS OF USE” (BOARD OF REGENTS, THE UNIVERSITY OF TEXAS SYSTEM, priority 2021, published 2024).
Entries after “also recorded” stand apart in the source; their conditions may differ. Blank lines part the entries; values can stand above or below the molecule they belong to. Where a SMILES comes first, the peptide text is derived from it. The star is where a group is joined. Cbz = O=C(OCc1ccccc1)*

Key:
BAF complexes = assay: BAF subunit protein levels by immunoblotting in Ewing sarcoma cells; format: cell-based, human
Description: Immunoblotting. […] The following antibodies were used: rabbit polyclonal anti-FLI1 (ab15289, Abcam); mouse monoclonal anti-FLAG M2 (F1804, MilliporeSigma): rabbit monoclonal anti-NELL2 (ab181376, Abcam); goat polyclonal anti-PGK1 (sc-17943, Santa Cruz Biotechnology); rabbit polyclonal anti-Robo3 (LS-C345713, LSBio); goat polyclonal anti-Robo3 (PA5-18714, Thermo Fisher Scientific); mouse monoclonal anti-cdc42 (ACD03, Cytoskeleton); rabbit polyclonal anti-Rac1/2/3 (2465, Cell Signaling Technologies); rabbit polyclonal anti-Rho A (2117, Cell Signaling Technologies); goat polyclonal anti-BRG1 (A303-877A, Bethyl Laboratories); rabbit monoclonal anti-BRG1 (49360, Cell Signaling Technologies); rabbit polyclonal anti-BRM (A301-014A-T, Bethyl Laboratories); mouse monoclonal anti-ARID1A/BAF250) (sc-32761, Santa Cruz Biotechnology); rabbit polyclonal anti-BAF170 (A301-039A-T, Bethyl Laboratories); rabbit monoclonal anti-BAF155 (11956, Cell Signaling Technologies); rabbit polyclonal anti-BAF60B (A301-596A-T, Bethyl Laboratories); rabbit polyclonal anti-BAF57 (A300-810A-T, Bethyl Laboratories); rabbit polyclonal anti-BAF53A (A301-391A-T, Bethyl Laboratories); rabbit monoclonal anti-BAF47 (8745, Cell Signaling Technologies); rabbit polyclonal anti-BRD9 (A303-781A-T, Bethyl Laboratories); rabbit monoclonal anti-SS18 (21792, Cell Signaling Technologies); rabbit monoclonal anti-CD133 (64326, Cell Signaling Technologies); rabbit polyclonal anti-srGAP1 (A301-286A-T, Bethyl Laboratories); rabbit polyclonal anti-srGAP2 (GTX130797, GeneTex); mouse monoclonal anti-tubulin (DMIA, Thermo Fisher Scientific); rabbit polyclonal anti-β-actin (4967, Cell Signaling Technologies); mouse monoclonal anti-Rpb1 (2629, Cell Signaling Technologies); rabbit monoclonal anti-cdc6 (3387, Cell Signaling Technologies); rabbit monoclonal anti-caveolin-1 (3267, Cell Signaling Technologies); rabbit polyclonal anti-phospho-caveolin-1 (3251, Cell Signaling Technologies); rabbit monoclonal anti-Src (2123, Cell Signaling Technologies); rabbit monoclonal anti-phospho-Src Family (6943, Cell Signaling Technologies); and rabbit polyclonal anti-GDF6 (NBP1-91934, Novus Biologicals). The following HRP-conjugated secondary antibodies were used: goat anti-rabbit (7074) and goat anti-mouse (7076) (Cell Signaling Technologies); donkey anti-goat (A50)-201P, Bethyl Laboratories).

CD133^low population [1] = assay: Chemotherapeutic drug treatment of CD133high and CD133low populations; format: cell-based, human; settings: for CD133low population after prolonged treatment: FIG. 4M
Procedure: Flow cytometry. Cells were trypsinized, washed with FACS wash buffer (PBS, 0.5% BSA, 2 mM EDTA), and incubated with PE-conjugated human CD133/1 antibody (clone AC133, Miltenyi Biotec; 1:100 in FACS wash buffer) for 20 minutes at 4° C. Cells were washed three times with FACS wash buffer and the CD133^high and CD133^low cell populations were sorted by using BD FACSAria (Becton Dickinson). The FACSDiva 6.1.3 software (Becton Dickinson) was used for sample analysis.

Rac. Ras, or Rab = settings: Surviladze et al. 2010; cited from earlier work
CD133^low population [2] = assay: Proliferation of sorted CD133low population (IncuCyte); format: cell-based, human; settings: CD133^low population treated with ML141
Procedure: (§1) Cell proliferation and xenograft tumorigenicity assays. Anchorage-dependent cell proliferation was assessed by IncuCyte live-cell imaging system (Essen BioScience). The IncuCyte system monitors cell proliferation by analyzing the occupied area (% confluence) of cell images over time. At least four fields from four wells were assayed for each experimental condition. The cell seeding density was 2000 cells per well in a 96-well plate. For each assay, biological replicates were performed to confirm the reproducibility of results. Anchorage-independent cell proliferation was evaluated by soft agar colony formation assays. A-673 cells were infected with lentiviruses expressing shRNAs against NELL2 or scrambled shRNA and were selected with 2 μg/ml puromycin. Four days after infection, 4×10^3 cells were plated in soft agar. The soft agar cultures were composed of two layers; a base layer [4 ml in a 60-mm dish; DMEM/10% fetal bovine serum/0.6% noble agar (A5431, MilliporeSigma)/penicillin/streptomycin] and a cell layer (2 ml in a 60-mm dish; DMEM/10% fetal bovine serum/0.3% noble agar/penicillin/streptomycin). Colonies were grown for three weeks and counted. Colonies (>50 cells) were scored by randomly counting 10 fields per dish. Sphere formation assays were done (Dasgupta, A., et al. (2017) Oncotarget 8, 77292-77308) using ultra-low attachment 6-well plates (Corning: seeding density 1×10^4 cells/well) and DMEM/F-12 medium supplemented with B27, human recombinant epidermal growth factor (20 ng/ml), and basic fibroblast growth factor (20 ng/ml). For xenograft tumorigenicity assays, cells were subcutaneously injected into the flanks of SCID mice (2×10^6 cells/injection, five mice/group). Tumor growth was monitored weekly using a caliper. While it is not possible to predict the effect size, the sample size of five mice per group was chosen based on experience with xenograft experiments. Mice were randomly allocated to treatment groups. Blinding of the researcher measuring tumor size was employed.
Flow cytometry. […]

A-673 and EW8 cells = assay: Proliferation of NELL2- or Robo3-silenced Ewing sarcoma cells (IncuCyte); format: cell-based, human; settings: 5 μM ML141; A-673 and EW8 cells; FIG. 3E
Procedure: Transfection and viral infection. Calcium phosphate co-precipitation was used for transfection of 293T cells. Lentiviruses were prepared by transfection in 293T cells following System Biosciences' protocol, and the cells infected with lentiviruses were selected with 2 μg/mL puromycin for 48 hours. The target sequences for shRNAs are as follows: FLI1 C-terminus shRNA, […] (SEQ ID NO: 20); luciferase shRNA, […] (SEQ ID NO: 21); NELL2 shRNA-1, […] (SEQ ID NO: 22); and NELL2 shRNA-2, […] (SEQ ID NO: 23). The following siRNAs were used: human NELL2 siRNA SMARTpool (M-012185-00); Dharmacon), human Robo3 siRNA SMARTpool (M-026504-00; Dharmacon), human Robo3 siRNAs NM_022370 (SASI_Hs01_00099511, SASI_Hs01_00099512, SASI_Hs01_00099513, SASI_Hs01_00099514, SASI_Hs01_00099515 and SASI_Hs01_00099516; MilliporeSigma), human cdc42 siRNA SMARTpool (M-005057-01; Dharmacon), human CD133 siRNA SMARTpool (M-010630-01; Dharmacon), human srGAP1 siRNA SMARTpool (M-026974-00; Dharmacon), srGAP2 siRNA SMARTpool (M-021531-03; Dharmacon), human caveolin-1 siRNA SMARTpool (M-003467-01; Dharmacon), human GDF6 siRNA SMARTpool (M-0330055-01; Dharmacon), and Non-Targeting siRNA Pool #2 (D-0012Jun. 14, 2005; Dharmacon), siRNA transfection of cell lines was performed using Lipofectamine™ RNAiMAX Transfection Reagent (Thermo Fisher).
Cell proliferation and xenograft tumorigenicity assays. Anchorage-dependent cell proliferation was assessed by IncuCyte live-cell imaging system (Essen BioScience). The IncuCyte system monitors cell proliferation by analyzing the occupied area (% confluence) of cell images over time. At least four fields from four wells were assayed for each experimental condition. The cell seeding density was 2000 cells per well in a 96-well plate. […] Anchorage-independent cell proliferation was evaluated by soft agar colony formation assays. […] Colonies were grown for three weeks and counted. Colonies (>50 cells) were scored by randomly counting 10 fields per dish. […] Tumor growth was monitored weekly using a caliper. […]

Robo3 = target: T1, Robo3 (Homo sapiens, UniProt Q96MS0); assay: NELL2-FLAG ligand-binding assay in A-673 cells; settings: FIG. 2B
T1 construct: endogenous in cells; host or cells: A-673 Ewing sarcoma cells
T1 sequence (Q96MS0 21-1386): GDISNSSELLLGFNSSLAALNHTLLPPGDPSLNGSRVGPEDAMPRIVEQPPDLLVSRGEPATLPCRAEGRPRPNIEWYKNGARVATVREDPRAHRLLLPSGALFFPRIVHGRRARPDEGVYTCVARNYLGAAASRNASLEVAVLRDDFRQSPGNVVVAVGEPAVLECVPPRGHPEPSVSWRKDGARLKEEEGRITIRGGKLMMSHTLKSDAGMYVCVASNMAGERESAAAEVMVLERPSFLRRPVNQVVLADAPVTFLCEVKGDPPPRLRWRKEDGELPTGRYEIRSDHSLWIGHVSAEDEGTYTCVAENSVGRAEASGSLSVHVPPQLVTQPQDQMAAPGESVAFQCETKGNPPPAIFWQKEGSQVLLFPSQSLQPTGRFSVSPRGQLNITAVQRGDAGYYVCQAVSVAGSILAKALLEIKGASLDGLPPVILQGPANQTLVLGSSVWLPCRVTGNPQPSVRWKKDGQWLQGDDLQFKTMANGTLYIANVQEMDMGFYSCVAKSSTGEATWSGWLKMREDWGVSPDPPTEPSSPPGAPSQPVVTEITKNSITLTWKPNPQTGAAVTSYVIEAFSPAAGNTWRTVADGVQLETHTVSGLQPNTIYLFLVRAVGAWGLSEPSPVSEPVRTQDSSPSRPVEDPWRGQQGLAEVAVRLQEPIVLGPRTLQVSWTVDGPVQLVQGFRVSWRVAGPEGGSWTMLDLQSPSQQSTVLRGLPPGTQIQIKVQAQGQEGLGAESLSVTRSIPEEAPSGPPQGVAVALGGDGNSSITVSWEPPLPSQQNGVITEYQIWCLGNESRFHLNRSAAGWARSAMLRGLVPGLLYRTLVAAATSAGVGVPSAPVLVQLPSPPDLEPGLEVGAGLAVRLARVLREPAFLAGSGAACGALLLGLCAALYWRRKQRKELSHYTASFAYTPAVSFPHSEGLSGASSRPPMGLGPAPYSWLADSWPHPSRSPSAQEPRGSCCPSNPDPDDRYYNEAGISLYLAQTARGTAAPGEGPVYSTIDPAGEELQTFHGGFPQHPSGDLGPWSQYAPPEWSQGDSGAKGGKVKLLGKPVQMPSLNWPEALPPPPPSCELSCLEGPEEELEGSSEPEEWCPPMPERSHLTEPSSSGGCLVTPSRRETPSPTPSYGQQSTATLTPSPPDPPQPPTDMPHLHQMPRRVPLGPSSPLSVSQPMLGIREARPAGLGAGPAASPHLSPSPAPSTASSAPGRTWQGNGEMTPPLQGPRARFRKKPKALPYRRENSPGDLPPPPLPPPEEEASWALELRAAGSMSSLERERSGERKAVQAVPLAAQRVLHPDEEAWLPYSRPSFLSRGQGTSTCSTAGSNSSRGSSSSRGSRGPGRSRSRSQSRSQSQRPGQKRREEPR
Procedure: Robo3 expression was readily detectable in Ewing sarcoma tumors and cell lines, but undetectable in mesenchymal stem cells (FIG. 2A). The role of Robo3 as the NELL2 receptor in Ewing sarcoma was tested using ligand-binding assays (FIG. 2B). C-terminally FLAG-tagged NELL2 was produced from transfected 293T/HEK293T cells and was incubated with A-673 cells that were transfected with Robo3 siRNA pool or control siRNA pool. After washing the cells to remove unbound NELL2-FLAG, a whole cell lysate was prepared and analyzed by immunoblotting to assess the binding of NELL2-FLAG to A-673 cells. […] The specificity of the NELL2-Robo3 interaction was further confirmed by ligand-binding assays using alkaline phosphatase-fused NELL2 (NELL2-AP) (FIG. 2C). NELL2-AP bound to COS cells expressing Robo3, but not Robo1 or vector (FIG. 2C).

[3] = target: T2, NELL2 EGF-like repeats (residue 397-637) (Homo sapiens (Human), UniProt Q99435 397-637); assay: immunogen ELISA of hybridoma clones
T2 construct: also called EGF-like repeat domain of NELL2; immunogen
T2 sequence (Q99435 397-637 limits assumed): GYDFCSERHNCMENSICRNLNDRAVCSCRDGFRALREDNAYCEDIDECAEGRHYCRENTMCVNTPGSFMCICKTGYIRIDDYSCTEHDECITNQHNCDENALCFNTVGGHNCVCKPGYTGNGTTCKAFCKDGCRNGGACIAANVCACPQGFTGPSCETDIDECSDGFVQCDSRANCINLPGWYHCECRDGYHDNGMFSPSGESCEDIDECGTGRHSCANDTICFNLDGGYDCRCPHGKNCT

A673 Ewing sarcoma cells = assay: Growth inhibition screen of anti-NELL2 hybridoma clones / mAbs on Ewing sarcoma cell proliferation; format: cell-based, human; settings: mAbs used at 1 μg/ml, FIG. 6
Procedure: as §1, with “Sphere formation assays were done (Dasgupta, A., et al. (2017) Oncotarget 8, 77292-77308) using ultra-low attachment 6-well plates (Corning: seeding density 1×10^4 cells/well) and DMEM/F-12 medium supplemented with B27, human recombinant epidermal growth factor (20 ng/ml), and basic fibroblast growth factor (20 ng/ml). For xenograft tumorigenicity assays, cells were subcutaneously injected into the flanks of SCID mice (2×10^6 cells/injection, five mice/group).” left out, “While it is not possible to predict the effect size, the sample size of five mice per group was chosen based on experience with xenograft experiments. Mice were randomly allocated to treatment groups. Blinding of the researcher measuring tumor size was employed.” left out

Molecule: CC(C)C[C@@H](C=O)NC(=O)[C@H](CC(C)C)NC(=O)[C@H](CC(C)C)NC(=O)OCc1ccccc1 [MG-132, reference compound] (Cbz-Leu-Leu-Leu-aldehyde)
Protein levels of BRG1, BAF250A, BAF155, and BAF47 reduced by CN04, effect of proteasome inhibitor (BAF complexes; CN04 treatment plus MG-132): restored

Molecule: N.N.[Cl][Pt][Cl] [cisplatin]
Resistance of CD133low versus CD133high population to the drug (CD133^low population [1]): more resistant
CD133low population after prolonged treatment (CD133^low population [1]): enriched the CD133^low population

Molecule: COc1cccc2c1C(=O)c1c(O)c3c(c(O)c1C2=O)C[C@@](O)(C(=O)CO)C[C@@H]3O[C@H]1C[C@H](N)[C@H](O)[C@H](C)O1 [doxorubicin]
Resistance of CD133low versus CD133high population to the drug (CD133^low population [1]): more resistant
CD133low population after prolonged treatment (CD133^low population [1]): enriched the CD133^low population

Molecule: ML141 [reference compound]
BRG1, BAF155, and BAF47 protein levels in CD133low population (BAF complexes; CD133^low population treated with ML141): increased BRG1, BAF155, and BAF47 protein levels
Reduction of BRG1, BAF250A, BAF155, and BAF47 by NELL2 silencing, effect of cdc42 inhibitor (BAF complexes; Ewing sarcoma cells, NELL2 silencing): abolished this response
Inhibition of Rac, Ras, or Rab (Rac. Ras, or Rab): does not inhibit
Cell proliferation of CD133low population (CD133^low population [2]): increased cell proliferation
Proliferation inhibition by NELL2 silencing or Robo3 silencing, effect of cdc42 inhibitor (A-673 and EW8 cells): abrogates the proliferation inhibition; also recorded: abolished

Binding to control siRNA transfected A-673 cells (Robo3): bound
Binding to Robo3-silenced A-673 cells (Robo3; Robo3 siRNA pool): abolished
Molecule: NELL2-FLAG: C-terminally FLAG-tagged NELL2 produced from transfected 293T/HEK293T cells

binding result [3]: binds
B1: anti-NELL2 mouse monoclonal antibody clone #17 (antibody, V domains shown)
VH: DVQLVESGGGLVQPGGSRKLSCAASGFTFSSFGMHWVRQAPEKGLEWVAYVSGGSSTIYYADTVKGRFTISRDNPKNTLFLQMTSLRSEDTAMYYCARSFSLLRLPVYFDFWGQGTTLTVSS
VL: DIQMTQSPSSLSASLGERVSLTCRASQEISDYLTWLQQKPDGTIKRLIYAASTLDSGVPKRFSGSRSGSDYSLTISSLESEDFADYYCLQYASFPLTFGAGTKLELK
notes: Mouse hybridoma mAb; also called NELL2 mAb
Ewing sarcoma cell proliferation (A673 Ewing sarcoma cells): strongly inhibited

binding result [3]: binds
B2: anti-NELL2 mouse monoclonal antibody clone #15 (antibody, V domains shown)
VH: EVKLVESGGGLVQPGGSLKLSCATSGFTFSDYYLYWVRQTPEKRLEWVAYISNGGDITYYPDTVKGRFAISRDNAKNTLYLQMSRLKSEDTAMYYCARGRVRSYYGNPDAMDFWGQGTSVTVSS
VL: DVVMTQTPLSLPVSLGDQASISCRSSQSLVHSNGNTYLHWYLQKPGQSPKLLIYKVSKRFSGVPDRFSGSGSGTDFTLKITRVEAEDLGVYFCSQSIYVPHTFGGGTKLEIK
notes: as for B1
Ewing sarcoma cell proliferation (A673 Ewing sarcoma cells): strongly inhibited
